Assay: Inhibition of CXCL1-induced human neutrophil chemotaxis

IC50 [nM] | SMILES
2.4 | Cc1ccc([C@@H](C)Nc2c(Nc3cccc(C(=O)N(C)C)c3O)c(=O)c2=O)o1 [(R)-2-hydroxy-N,N-dimethyl-3-(2-(1-(5-methylfuran-2-yl)ethylamino)-3,4-dioxocyclobut-1-enylamino)benzamide]
48 | CC[C@@H](Nc1c(Nc2cccc(C(=O)N(C)C)c2O)c(=O)c1=O)c1ccccc1 [(R)-3-(3,4-dioxo-2-(1-phenylpropylamino)cyclobut-1-enylamino)-2-hydroxy-N,N-dimethylbenzamide]
